# According to patent US7989628B2, “2-aminoquinolines” (Hoffmann-La Roche Inc., priority 2008, dated 2011):
# Test system: not given
# Experiment: not given
# Conditions: not given
row,melting point [°C],Compound
1,161,"COc1ccccc1CNc1ccc2c(C(=N)NO)cccc2n1 [Example 32, N-Hydroxy-2-(2-methoxy-benzylamino)-quinoline-5-carboxamidine]"

# Target: T1, recombinant human 5-HT5A receptor (Homo sapiens, UniProt P47898)
# T1 construct: expressed in transfected cells; host or cells: HEK-EBNA (Human Embryonic Kidney-EBNA) cells, transient cDNA expression; membranes
# T1 sequence (P47898 whole entry): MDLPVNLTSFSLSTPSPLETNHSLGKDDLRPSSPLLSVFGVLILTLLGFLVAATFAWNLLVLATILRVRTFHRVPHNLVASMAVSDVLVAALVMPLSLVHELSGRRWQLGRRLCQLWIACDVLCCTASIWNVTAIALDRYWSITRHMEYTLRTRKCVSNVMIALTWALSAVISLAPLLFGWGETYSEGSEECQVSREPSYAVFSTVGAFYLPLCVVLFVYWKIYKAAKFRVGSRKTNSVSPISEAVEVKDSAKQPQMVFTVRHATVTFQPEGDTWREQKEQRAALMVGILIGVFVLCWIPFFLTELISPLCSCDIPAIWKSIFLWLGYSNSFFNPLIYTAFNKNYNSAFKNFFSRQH
# Experiment: [3H]LSD radioligand binding assay
# Conditions: [3H]LSD approx. 1 nM; membranes from HEK-EBNA cells transiently expressing 5-HT5A; Ki by Cheng-Prussoff equation
# Protocol: A [^3H]LSD radioligand binding assay was used to determine the affinity of the compounds for the recombinant human 5-HT5A receptor, in membranes from transiently (cDNA) expressed 5-HT5A receptors in Human Embryonic Kidney-EBNA (HEK-EBNA) cells. Assay buffer consisted of Tris (50 mM) buffer containing 1 mM EGTA, 10 mM MgCl2 (pH 7.4) and 10 μM pargyline. The binding assay was carried out in 96-well-plates in the presence of [^3H]LSD (approximately 1 nM), approximately 2 μg/well of membrane protein, and 0.5 mg of Ysi-poly-1-lysine SPA beads in a final volume of 200 μl of buffer. Non-specific binding was defined using methiothepin 2 μM. Compounds were tested at 10 concentrations. All assays were conducted in duplicate and repeated at least two times. Assay plates were incubated for 120 min at room temperature before centrifugation. Bound ligand was determined using a Packard Topcount scintillation counter. IC50 values were calculated using a non-linear curve fitting program and Ki values calculated using the Cheng-Prussoff equation.
row,Ki [nM],Compound
1,112,"Cc1cc2cccc(Nc3ccc4c(N)cccc4n3)c2o1 [Example 14, N^2-(2-Methyl-benzofuran-7-yl)-quinoline-2,5-diamine]"
2,219,"COc1ccccc1CNc1ccc2c(OCCSC)cccc2n1 [Example 30, (2-Methoxy-benzyl)-[5-(2-methylsulfanyl-ethoxy)-quinolin-2-yl]-amine]"
3,44.7,"COc1ccccc1CNc1ccc2c(C(=N)NO)cccc2n1 [Example 32, N-Hydroxy-2-(2-methoxy-benzylamino)-quinoline-5-carboxamidine]"
4,60.4,"Cc1ccc(CNc2ccc3c(NS(=O)(=O)N(C)C)cccc3n2)o1 [Example 20, N,N-dimethyl-N′-(2-{[(5-methyl-2-furyl)methyl]amino}quinolin-5-yl)sulfamide]"
5,81.2,"CSCCNc1cccc2nc(NCc3ccc(C)o3)ccc12 [Example 9, N^2-(5-Methyl-furan-2-ylmethyl)-N^5-(2-methylsulfanyl-ethyl)-quinoline-2,5-diamine]"
6,44.4,"CC1(C)Cc2cccc(Nc3ccc4c(N)cccc4n3)c2O1 [Example 16, N^2-(2,2-Dimethyl-2,3-dihydro-benzofuran-7-yl)-quinoline-2,5-diamine]"
7,71.2,"Nc1cccc2nc(Nc3cccc(C4CC4)c3)ccc12 [Example 18, N^2-(3-Cyclopropyl-phenyl)-quinoline-2,5-diamine]"
8,101,"CC1Cc2cccc(Nc3ccc4c(NS(=O)(=O)N(C)C)cccc4n3)c2O1 (stereo not shown) [Example 21, N,N-dimethyl-N′-{2-[(2-methyl-2,3-dihydro-1-benzofuran-7-yl)amino]quinolin-5-yl}sulfamide]"
9,49.4,"CC1Cc2cccc(Nc3ccc4c(N)cccc4n3)c2O1 (stereo not shown) [Example 15, N^2-(2-Methyl-2,3-dihydro-benzofuran-7-yl)-quinoline-2,5-diamine]"
10,61.8,"Cc1ccc(CNc2ccc3c(CCCCO)cccc3n2)o1 [Example 26, 4-{2-[(5-Methyl-furan-2-ylmethyl)-amino]-quinolin-5-yl}-butan-1-ol]"
11,99.3,"Cc1ccc(CNc2ccc3c(NCC[S+](C)[O-])cccc3n2)o1 (stereo not shown) [Example 10, N^5-(2-Methanesulfinyl-ethyl)-N^2-(5-methyl-furan-2-ylmethyl)-quinoline-2,5-diamine]"
12,83.8,"Cc1ccc(CNc2ccc3c(N)cccc3n2)o1 [Example 2, N^2-(5-Methyl-furan-2-ylmethyl)-quinoline-2,5-diamine]"
13,93.9,"Nc1cccc2nc(NCc3ccccc3OC(F)(F)F)ccc12 [Example 13, N^2-(2-Trifluoromethoxy-benzyl)-quinoline-2,5-diamine]"
14,27.3,"COc1ccccc1CNc1ccc2c(N)cccc2n1 [Example 1, N^2-(2-Methoxy-benzyl)-quinoline-2,5-diamine]"
15,92,"Cc1ccc(CNc2ccc3c(NC4CCOCC4)cccc3n2)o1 [Example 7, N^2-(5-Methyl-furan-2-ylmethyl)-N^5-(tetrahydro-pyran-4-yl)-quinoline-2,5-diamine]"
